Molecular target: T1, PfENT1 (Plasmodium falciparum, UniProt Q8IDM6)
T1 construct: expressed in transfected cells; host or cells: fui1Δ yeast (Saccharomyces cerevisiae), co-expressing GFP
Type: cell-based
Conditions: primary HTS, compounds at 10 μM, 125 μM 5-FUrd
Description: A yeast-based high throughput screening (HTS) assay was used to identify compounds that inhibit PfENT1. The compounds described in this application were identified by screening four commercially available, chemical compound libraries obtained from Dr. Donald Landry's laboratory (Department of Medicine, Columbia University). These libraries contain approximately 80,000 unique chemical entities.
In the primary screen the compounds were tested at a concentration of 10 μM. Hits were identified by the growth of fui1Δ yeast expressing PfENT1 and Green Fluorescent Protein (GFP) in the presence of the cytotoxic nucleoside 5-fluorouridine (5-FUrd). 5-FUrd is transported by PfENT1. PfENT1 expressing fui1Δ yeast will only grow in the presence of 125 μM 5-FUrd if a PfENT1 inhibitor blocks the uptake of 5-FUrd into the yeast. Significant yeast growth in the HTS in 384 well plates was determined by two criteria: 1) turbidity as determined by the optical density at 620 nm (OD620) and 2) GFP fluorescence intensity. […] Hits had to be positive by both criteria.

T1 sequence (Q8IDM6 whole entry): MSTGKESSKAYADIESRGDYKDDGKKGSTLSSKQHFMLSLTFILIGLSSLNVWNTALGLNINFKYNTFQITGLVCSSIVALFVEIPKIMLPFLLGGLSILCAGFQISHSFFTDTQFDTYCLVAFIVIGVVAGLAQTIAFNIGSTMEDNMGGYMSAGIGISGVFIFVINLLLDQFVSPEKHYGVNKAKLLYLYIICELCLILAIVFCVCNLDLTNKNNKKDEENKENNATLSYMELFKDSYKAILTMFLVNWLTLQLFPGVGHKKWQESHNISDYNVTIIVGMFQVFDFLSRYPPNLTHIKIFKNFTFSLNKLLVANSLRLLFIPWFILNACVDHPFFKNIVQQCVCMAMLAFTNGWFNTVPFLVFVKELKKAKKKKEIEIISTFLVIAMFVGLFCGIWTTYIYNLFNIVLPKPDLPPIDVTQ

Structure (SMILES): COCc1cc(C)nc2sc(C(=O)Nc3cccc(OC)c3)c(N)c12 [compound 53, 3-amino-4-(methoxymethyl)-N-(3-methoxyphenyl)-6-methylthieno [2,3-b]pyridine-2-carboxamide]
- Avg Normalized % maximal activity: 7.94%

Structure (SMILES): COc1ccc(NC(=O)C2Cc3ccccc3C(=O)O2)cc1 (stereo not drawn) [compound 106, N-(4-methoxyphenyl)-1-oxo-3,4-dihydro-1H-isochromene-3-carboxamide]
- Avg Normalized % maximal activity: 4.69%

Structure (SMILES): C[C@H]1CC[C@]2(NC1)O[C@H]1C[C@H]3[C@@H]4CC[C@H]5C[C@@H](O[C@@H]6O[C@H](CO)[C@H](O[C@@H]7O[C@H](CO)[C@@H](O)[C@H](O[C@@H]8OC[C@@H](O)[C@H](O)[C@H]8O)[C@H]7O[C@@H]7O[C@H](CO)[C@@H](O)[C@H](O)[C@H]7O)[C@H](O)[C@H]6O)CC[C@]5(C)[C@H]4CC[C@]3(C)[C@H]1[C@@H]2C [compound 95]
- Avg Normalized % maximal activity: 5.00%

Structure (SMILES): Cc1ccc(C(=O)Nc2ccc(C(=O)N3CCCCC3)cc2)cc1 [compound 86, 4-methyl-N-[4-(1-piperidinylcarbonyl)phenyl]benzamide]
- Avg Normalized % maximal activity: 5.63%

Structure (SMILES): O=C(C1CCCCC1)N1CCN(c2ccccn2)CC1 [compound 130, 1-(cyclohexylcarbonyl)-4-(2-pyridinyl)piperazine]
- Avg Normalized % maximal activity: 3.69%

Structure (SMILES): CC(C)c1nnc(NC(=O)c2cccc(I)c2)s1 [compound 123, 3-iodo-N-(5-isopropyl-1,3,4-thiadiazol-2-yl)benzamide]
- Avg Normalized % maximal activity: 4.10%

Structure (SMILES): CCN(CC)C(=O)COc1ccc2c(c1)oc(=O)c1cc(OC)ccc12 [compound 17, N,N-diethyl-2-[(8-methoxy-6-oxo-6H-benzo [c]chromen-3-yl)oxy]acetamide]
- Avg Normalized % maximal activity: 22.15%

Structure (SMILES): COc1ccc(-c2cnc3ccccc3n2)cc1NC(=O)c1ccco1 [compound 54, N-[2-methoxy-5-(2-quinoxalinyl)phenyl]-2-furamide]
- Avg Normalized % maximal activity: 7.83%

Structure (SMILES): O=C(Nc1ccc(-c2nnc(-c3ccco3)o2)cc1)C1CCCO1 (stereo not drawn) [compound 26, N-{4-[5-(2-furyl)-1,3,4-oxadiazol-2-yl]phenyl}tetrahydro-2-furancarboxamide]
- Avg Normalized % maximal activity: 15.22%

Structure (SMILES): Cc1ccccc1C(=O)Nc1ccc2c(C)cc(=O)oc2c1 [compound 28]
- Avg Normalized % maximal activity: 13.98%

Structure (SMILES): CC(=O)c1ccc(NC(=O)CSc2nnc3c4ccccc4n(C)c3n2)cc1 [compound 143, N-(4-acetylphenyl)-2-[(5-methyl-5H-[1,2,4]triazino [5,6-b]indol-3-yl)thio]acetamide]
- Avg Normalized % maximal activity: 3.07%

Structure (SMILES): COc1ccc(OC)c(NC(=O)N2CCN(c3cc(Cl)ccc3C)CC2)c1 [compound 124, 4-(5-chloro-2-methylphenyl)-N-(2,5-dimethoxyphenyl)-1-piperazine-carboxamide]
- Avg Normalized % maximal activity: 3.95%

Structure (SMILES): COc1cc(C(=O)Nc2ccc(C(=O)c3cccs3)cc2)cc(OC)c1OC [compound 138, 3,4,5-trimethoxy-N-[4-(2-thienylcarbonyl)phenyl]benzamide]
- Avg Normalized % maximal activity: 3.31%

Structure (SMILES): COc1ccc(NC(=O)C(C)Oc2ccc3oc(=O)cc(C)c3c2)cc1 (stereo not drawn) [compound 88, N-(4-methoxyphenyl)-2-[(4-methyl-2-oxo-2H-chromen-6-yl)oxy]propanamide]
- Avg Normalized % maximal activity: 5.42%

Structure (SMILES): Cc1cccn2c(=O)c3cc(C(=O)NC4CCCC4)sc3nc12 [compound 55, N-cyclopentyl-9-methyl-4-oxo-4H-pyrido[1,2-a]thieno[2,3-d] pyrimidine-2-carboxamide]
- Avg Normalized % maximal activity: 7.75%

Structure (SMILES): COc1ccc(OC)c(NC(=O)COc2ccc3ccccc3c2)c1 [compound 163, N-(2,5-dimethoxyphenyl)-2-(2-naphthyloxy)acetamide]
- Avg Normalized % maximal activity: 2.04%

Structure (SMILES): COCCNCCOc1ccc(C(C)(C)C)cc1C.O=C(O)C(=O)O [compound 111, [2-(4-tert-butyl-2-methylphenoxy)ethyl](2-methoxyethyl)amine oxalate]
- Avg Normalized % maximal activity: 4.58%

Structure (SMILES): Cc1cc(-c2nc3ncccc3o2)ccc1NC(=O)c1ccco1 [compound 41, N-(2-methyl-4-[1,3]oxazolo[4,5-b]pyridin-2-ylphenyl)-2-furamide]
- Avg Normalized % maximal activity: 10.28%

Structure (SMILES): Cc1nnc(SCc2csc(-c3ccc4c(c3)OCO4)n2)s1 [compound 46, 2-({[2-(1,3-benzodioxol-5-yl)-1,3-thiazol-4-yl]methyl}thio)-5-methyl-1,3,4-thiadiazole]
- Avg Normalized % maximal activity: 8.94%

Structure (SMILES): Cc1cc(C)cc(C(=O)Nc2cccc(NC(=O)c3ccco3)c2)c1 [compound 75, N-{3-[(3,5-dimethylbenzoyl)amino]phenyl}-2-furamide]
- Avg Normalized % maximal activity: 6.27%

Structure (SMILES): CCC(C(=O)NCc1cccs1)c1ccccc1 (stereo not drawn) [compound 165, 2-phenyl-N-(2-thienylmethyl)butanamide]
- Avg Normalized % maximal activity: 2.01%

Structure (SMILES): COC(=O)c1ccccc1NC(=O)c1cccc(NC(=O)c2ccco2)c1C [compound 33, methyl 2-{[3-(2-furoylamino)-2-methylbenzoyl]amino}benzoate]
- Avg Normalized % maximal activity: 11.98%

Structure (SMILES): Cc1cc(=O)oc2cc(OCc3ccc4c(c3)OCO4)ccc12 [compound 134, 7-(1,3-benzodioxol-5-ylmethoxy)-4-methyl-2H-chromen-2-one]
- Avg Normalized % maximal activity: 3.56%

Structure (SMILES): COc1ccc(C(=O)Nc2ccc(-c3nc4ncccc4o3)cc2C)cc1OC [compound 37, 3,4-dimethoxy-N-(2-methyl-4-[1,3]oxazolo [4,5-b]pyridin-2-ylphenyl)benzamide]
- Avg Normalized % maximal activity: 10.61%

Structure (SMILES): CCOc1cc(-c2noc(CCCC(=O)N3CCCCC3)n2)ccc1OC [compound 64, 1-{4-[3-(3-ethoxy-4-methoxyphenyl)-1,2,4-oxadiazol-5-yl]butanoyl}piperidine]
- Avg Normalized % maximal activity: 7.14%

Structure (SMILES): COc1ccc(Cl)cc1NC(=O)c1ccc2nccnc2c1 [compound 87, N-(5-chloro-2-methoxyphenyl)-6-quinoxaline-carboxamide]
- Avg Normalized % maximal activity: 5.62%

Structure (SMILES): CCC(=O)Nc1cccc(-c2nnc(-c3ccccc3C)o2)c1 [compound 114, N-{3-[5-(2-methylphenyl)-1,3,4-oxadiazol-2-yl]phenyl} propanamide]
- Avg Normalized % maximal activity: 4.37%

Structure (SMILES): Cc1ccc(C(=O)c2cccc(NC(=O)c3cccs3)c2)cc1C [compound 149, N-[3-(3,4-dimethylbenzoyl)phenyl]-2-thiophene-carboxamide]
- Avg Normalized % maximal activity: 2.71%

Structure (SMILES): CCSc1nnc(NC(=O)c2cccc(OC)c2)s1 [compound 113, N-[5-(ethylthio)-1,3,4-thiadiazol-2-yl]-3-methoxybenzamide]
- Avg Normalized % maximal activity: 4.39%

Structure (SMILES): O=C(CSc1nnc(-c2ccc(Cl)cc2Cl)o1)N1CCCCC1 [compound 45, 1-({[5-(2,4-dichlorophenyl)-1,3,4-oxadiazol-2-yl]thio}acetyl)piperidine]
- Avg Normalized % maximal activity: 8.97%

Structure (SMILES): Cc1nc(NC(=O)c2oc3ccccc3c2C)sc1C(=O)N(C)C [compound 22, N,N,4-trimethyl-2-{[(3-methyl-1-benzofuran-2-yl)carbonyl]amino}-1,3-thiazole-5-carboxamide]
- Avg Normalized % maximal activity: 17.36%

Structure (SMILES): CC(C(=O)O)c1ccc(-c2ccccc2)c(F)c1 (stereo not drawn) [compound 77]
- Avg Normalized % maximal activity: 6.18%

Structure (SMILES): CN(C(=O)c1cc2c(=O)n3ccccc3nc2n1C)C1CCCCC1 [compound 153, N-cyclohexyl-N,1-dimethyl-4-oxo-1,4-dihydropyrido [1,2-a]pyrrolo[2,3-d] pyrimidine-2-carboxamide]
- Avg Normalized % maximal activity: 2.37%

Structure (SMILES): CC1CCc2sc3ncnc(N4CCN(C(=O)c5ccco5)CC4)c3c2C1 (stereo not drawn) [compound 21, 4-[4-(2-furoyl)-1-piperazinyl]-6-methyl-5,6,7,8-tetrahydro[1] benzothieno[2,3-d]pyrimidine]
- Avg Normalized % maximal activity: 17.70%

Structure (SMILES): COc1ccc(N(CC(=O)Nc2ccc(Cl)cc2)S(C)(=O)=O)c(OC)c1 [compound 107, N~1~-(4-chlorophenyl)-N~2~-(2,4-dimethoxyphenyl)-N~2~-(methylsulfonyl)glycinamide]
- Avg Normalized % maximal activity: 4.67%

Structure (SMILES): CC(=O)Nc1ccc(NC(=O)CSc2nc3ccccc3s2)cc1 [compound 168, N-[4-(acetylamino)phenyl]-2-(1,3-benzothiazol-2-ylthio)acetamide]
- Avg Normalized % maximal activity: 1.93%

Structure (SMILES): Cc1cccc(N2C(=O)CC(NC3CCCC3)C2=O)c1 (stereo not drawn) [compound 104, 3-(cyclopentylamino)-1-(3-methylphenyl)-2,5-pyrrolidinedione]
- Avg Normalized % maximal activity: 4.72%

Structure (SMILES): O=C(CCCN1C(=O)c2cccc3cccc(c23)C1=O)N1CCCCC1 [compound 71, 2-[4-oxo-4-(1-piperidinyl)butyl]-1H-benzo[de]isoquinoline-1,3(2H)-dione]
- Avg Normalized % maximal activity: 6.67%

Structure (SMILES): O=C(Cc1cccc2ccccc12)Nc1nncs1 [compound 62, 2-(1-naphthyl)-N-1,3,4-thiadiazol-2-ylacetamide]
- Avg Normalized % maximal activity: 7.27%

Structure (SMILES): CCOc1ccccc1NC(=O)c1cccc(NC(=O)c2ccco2)c1 [compound 31, N-(3-{[(2-ethoxyphenyl)amino]carbonyl}phenyl)-2-furamide]
- Avg Normalized % maximal activity: 13.00%

Structure (SMILES): O=C1OC(CO)[C@@H](O)C(O)C1O (stereo partly drawn) [compound 102]
- Avg Normalized % maximal activity: 4.76%

Structure (SMILES): O=C(Nc1ccc(-c2nnc(-c3ccco3)o2)cc1)C1CCCCC1 [compound 110, N-{4-[5-(2-furyl)-1,3,4-oxadiazol-2-yl]phenyl} cyclohexane-carboxamide]
- Avg Normalized % maximal activity: 4.61%
